# In patent US9085791B2, “Method for screening substance relating to endoplasmic reticulum stress participating in onset of diabetes” (THE UNIVERSITY OF TOKUSHIMA, priority 2011, dated 2015):
# Experiments:
# Assay type in all cases: cell-based
# ATF6 activation [1] = test: ATF6 activity reporter system (EGFPS-ATF6d and EGFPL expression vectors) in HEK293 cells, green fluorescence
# Excerpt: An EGFPS-ATF6d expression vector and an EGFPL expression vector were produced using a green fluorescent protein GFP as a reporter protein. An ATF6 activity reporter system having the two vectors was introduced into the following cell strains.
# The EGFPS-ATF6d expression vector and the EGFPL expression vector were introduced into HEK293 cells using a polyethylene imine method at an efficiency of not less than 90%. Through an electroporation method using NEON (electroporation device) (Invitrogen), the EGFPS-ATF6d expression vector and the EGFPL expression vector were introduced into MIN6 cells, HepG2 cells, 3T3-L1 cells, and L6 cells at an efficiency of not less than 80%, 60%, 90%, and 70%, respectively.
# In order to confirm that the ATF6 activity reporter system functions in an endoplasmic reticulum stress-dependent manner, the EGFPS-ATF6d expression vector and the EGFPL expression vector were coexpressed or individually expressed in HEK293 cells.
# In the cells in which the EGFPS-ATF6d expression vector and the EGFPL expression vector were coexpressed, green fluorescence was slightly observed. The cells were stimulated with 0.2 ug/ml tunicamycin, which is an endoplasmic reticulum stress inducer, and observed 6 hours after the stimulation.
# It is important that ATF6 activity reporter system is capable of detecting ATF6 activation in an endoplasmic reticulum stress-specific manner. Therefore, HEK293 cells in which the EGFPS-ATF6d expression vector and the EGFPL expression vector are coexpressed are stimulated by etoposide, which is a DNA replication inhibitor; thapsigargin, which is an endoplasmic reticulum stress inducer; and DTT, which is an endoplasmic reticulum stress inducer, in an amount of 100 uM, 0.2 uM, and 1 mM, respectively; and the presence of fluorescence was observed.
# ATF6 activation [2] = test: ATF6 activity reporter system in mouse fibroblasts modified by deleting Ire1α gene or PERK gene; details: 0.2 ug/ml tunicamycin, 6 hours
# Experimental: The endoplasmic reticulum stress response is known to be controlled by three individual pathways. It is important that the ATF6 activity reporter system enables detection of ATF6 activation with no influence of other pathways, such as Ire1 pathway or PERK pathway. In this connection, the EGFPS-ATF6d expression vector and the EGFPL expression vector were coexpressed in mouse fibroblasts modified by deleting Ire1α gene or PERK gene. The cells were observed 6 hours after stimulation with 0.2 ug/ml tunicamycin, which is an endoplasmic reticulum stress inducer.
# IRE1 pathway = test: Ire1 activation reporter (XBP1 splicing) in cell strains derived from different organs; details: 0.2 ug/ml tunicamycin, 6 hours
# Excerpt: (§1) The endoplasmic reticulum stress response is controlled by the three pathways, namely, Ire1 pathway, PERK pathway, and ATF6 pathway. Apart from the homeostasis of endoplasmic reticulum, they are also individually involved in control of organ-specific metabolism. Detection of the three endoplasmic reticulum stress response pathways is considered important to discover a drug targeting organ-specific endoplasmic reticulum stress response with fewer side effects. […] Med. (2004) 10 98-102, for measuring Ire1 pathway by XBP1 splicing, and a PERK activation reporter expression vector, disclosed in J Cell Biol. (2004) 167 27-33, for measuring PERK pathway by ATF4 translation were produced. An EGFPS-ATF6d expression vector, an EGFPL expression vector, the Ire1 activation reporter expression vector, and the PERK activation reporter expression vector were expressed in pancreatic β-cell strain MIN6 cells, hepatic cell strain HepG2 cells, adipose cell strain 3T3-L1 cells, and skeletal muscle cell strain L6 cells, respectively. The cells were observed 6 hours after the stimulation with 0.2 ug/ml tunicamycin, which is an endoplasmic reticulum stress inducer.
# ATF6 pathway = test: ATF6 activity reporter system in cell strains derived from different organs; details: HepG2, MIN6, L6, 3T3-L1 cells; 0.2 ug/ml tunicamycin, 6 hours
# Excerpt: as §1
# PERK pathway = test: PERK activation reporter (ATF4 translation) in cell strains derived from different organs; details: HepG2, MIN6, L6, 3T3-L1 cells; 0.2 ug/ml tunicamycin, 6 hours
# Excerpt: as §1
# HEK293 cells = test: Hoechst33258 staining for cell death of stimulated HEK293 cells; details: etoposide 100 uM, thapsigargin 0.2 uM, DTT 1 mM, after 36 hours
# MIN6 cells = test: Insulin secretion in pancreatic β-cell MIN6 cells (ELISA); details: thapsigargin 0.2 uM or DTT 1 M for 30 minutes, culture 36 hours, then KREBS buffer with 3 mM or 20 mM glucose for 1 hour
# Experimental: A control solution (DMSO), a thapsigargin solution (thapsigargin/DMSO solution), or a DTT solution (DTT/DMSO solution) was added to a culture solution (DMEM containing 10% fetal bovine serum) in which pancreatic p-cell MIN6 cells are cultured, and the culture solution was replaced with a general culture solution (DMEM containing 10% fetal bovine serum) after 30 minutes. Then, the culture was continued for 36 hours. The thapsigargin solution was added so that the thapsigargin concentration in the culture solution became 0.2 uM, and the DTT solution was added so that the DTT concentration in the culture solution became […]. Thereafter, the culture solution was replaced with a KREBS buffer solution containing 3 mM or 20 mM glucose, and the culture was continued for 1 hours. The concentration of insulin secreted in the culture solution was measured according to the ELISA method.
# [3] = HEK293 cells coexpressing both vectors, etoposide 100 uM, thapsigargin 0.2 uM, DTT 1 mM
molecule,measurement,setting,value
tunicamycin,green fluorescence,"ATF6 activation [1]; 0.2 ug/ml tunicamycin, 6 hours after stimulation, HEK293 cells coexpressing EGFPS-ATF6d and EGFPL expression vectors",significant green fluorescence was observed
same,green fluorescence,"ATF6 activation [1]; 0.2 ug/ml tunicamycin, 6 hours after stimulation, HEK293 cells with EGFPS-ATF6d and EGFPL expression vectors individually expressed",no green fluorescence was observed
same,green fluorescence,ATF6 activation [2]; fibroblast modified by Ire1α gene deletion,significant green fluorescence was observed
same,green fluorescence,ATF6 activation [2]; fibroblast modified by PERK gene deletion,significant green fluorescence was observed
same,activation of IRE1 pathway (fluorescence intensity),IRE1 pathway; adipose cell strain 3T3-L1 cells,relatively low
same,activation of IRE1 pathway (fluorescence intensity),IRE1 pathway; hepatic cell strain HepG2 cells,relatively high
same,activation of IRE1 pathway (fluorescence intensity),IRE1 pathway; pancreatic β-cell strain MIN6 cells,relatively high
same,activation of IRE1 pathway (fluorescence intensity),IRE1 pathway; skeletal muscle cell strain L6 cells,relatively high
same,"intensity of activation of ATF6 pathway, order among cell strains",ATF6 pathway,"highest in hepatic cell strain HepG2 cells, followed by pancreatic β-cell strain MIN6 cells, skeletal muscle cell strain L6 cells, and adipose cell strain 3T3-L1 cells in descending order"
same,"degree of the activation of PERK pathway, order among cell strains",PERK pathway,"highest in hepatic cell strain HepG2 cells (pancreatic β-cell strain MIN6 cells and skeletal muscle cell strain L6 cells), followed by adipose cell strain 3T3-L1 cells"
C/C=C(/C)C(=O)O[C@H]1C(C)=C2[C@H]([C@@H]1OC(=O)CCCCCCC)[C@@](C)(OC(C)=O)C[C@H](OC(=O)CCC)[C@@]1(O)[C@H]2OC(=O)[C@@]1(C)O [thapsigargin],green fluorescence,ATF6 activation [1]; [3],significant green fluorescence was observed
same,cell death (Hoechst33258 staining),HEK293 cells,severe enough to cause cell death after 36 hours
same,insulin secretion (concentration of insulin secreted in the culture solution),MIN6 cells,insulin secretion was suppressed
COc1cc([C@@H]2c3cc4c(cc3[C@@H](O[C@@H]3O[C@@H]5CO[C@@H](C)O[C@H]5[C@H](O)[C@H]3O)[C@H]3COC(=O)[C@H]23)OCO4)cc(OC)c1O [etoposide],green fluorescence,ATF6 activation [1]; [3],no green fluorescence was observed
same,cell death (Hoechst33258 staining),HEK293 cells,severe enough to cause cell death after 36 hours
"O[C@H](CS)[C@H](O)CS (racemic) [DTT, dithiothreitol]",green fluorescence,ATF6 activation [1]; [3],significant green fluorescence was observed
same,cell death (Hoechst33258 staining),HEK293 cells,severe enough to cause cell death after 36 hours
same,insulin secretion (concentration of insulin secreted in the culture solution),MIN6 cells,insulin secretion was suppressed
